Tests used:
Assay type in all cases: biochemical, Spirodela polyrhiza
SpPAL2 [1] = system: T1, SpPAL2; experiment: Michaelis-Menten kinetics, deamination to trans-cinnamic acid; settings: 0-20 mM L-Phe; pH and temperature of the kinetic runs not clearly stated (activity assay: 100 mM Tris-HCl pH 8.0, 50 °C)
T1 construct: full-length ORF (2277 bp); about 83 kDa; homotetramer only predicted
Source text: Michaelis-Menten kinetics, deamination to trans-cinnamic acid on SpPAL2

SpPAL3 = system: T2, SpPAL3; experiment: as above; settings: 0-20 mM L-Phe; pH and temperature of the kinetic runs not clearly stated (activity assay: 100 mM Tris-HCl pH 8.0, 50 °C)
T2 construct: about 79 kDa; homotetramer only predicted
Source text: Michaelis-Menten kinetics, deamination to trans-cinnamic acid on SpPAL3

SpPAL1 [2] = system: T3, SpPAL1; experiment: as above; settings: 0-20 mM L-Phe; pH and temperature of the kinetic runs not clearly stated (activity assay: 100 mM Tris-HCl pH 8.0, 50 °C)
T3 construct: full-length ORF (2172 bp); about 78 kDa; homotetramer only predicted
Source text: Michaelis-Menten kinetics, deamination to trans-cinnamic acid on SpPAL1

SpPAL1 [3] = system: T3, SpPAL1; experiment: Michaelis-Menten kinetics, deamination to p-coumaric acid; settings: 0.1-2.5 mM L-Tyr; pH and temperature of the kinetic runs not clearly stated (activity assay: 100 mM Tris-HCl pH 8.0, 50 °C)
Source text: Michaelis-Menten kinetics, deamination to p-coumaric acid on SpPAL1

SpPAL2 [4] = system: T1, SpPAL2; experiment: as above; settings: 0.1-2.5 mM L-Tyr; pH and temperature of the kinetic runs not clearly stated (activity assay: 100 mM Tris-HCl pH 8.0, 50 °C); Km lies above the tested concentration range
Source text: Michaelis-Menten kinetics, deamination to p-coumaric acid on SpPAL2

Structure (SMILES) | Km (SpPAL2 [1]) [µM] | Km (SpPAL3) [µM] | Km (SpPAL1 [2]) [µM] | Km (SpPAL1 [3]) [µM] | Km (SpPAL2 [4]) [µM]
N[C@@H](Cc1ccccc1)C(=O)O [L-Phe] | 345 | 632 | 252 | – | –
N[C@@H](Cc1ccc(O)cc1)C(=O)O [L-Tyr] | – | – | – | 1290 | 8720
